Measurements: patent publication US9248122B2, “Heteroquinoline-3-carboxamides as KCNQ2/3 modulators” (GRÜNENTHAL GMBH, priority 2012, dated 2016)

Tests used:
KCNQ2/3 channels = biological target: T1, KCNQ2/3 channels (Homo sapiens, UniProt O43525+O43526); experiment: Fluorescence assay using a voltage sensitive dye (fluorimetry); assay type: cell-based; details: CHO-K1 cells expressing KCNQ2/3 channels; for Emax: relative to retigabine = 100%, read-out: Fluorimetry % efficacy (retigabine = 100%)
T1 construct: expressed in transfected cells
Protocol: Pharmacological Experiments Method I. Fluorescence Assay Using a Voltage Sensitive Dye
Human CHO—K1 cells expressing KCNQ2/3 channels are cultivated adherently at 37° C., 5% CO2 and 95% humidity in cell culture bottles (e.g. 80 cm^2 TC flasks, Nunc) with DMEM-high glucose (Sigma Aldrich, D7777) including 10% FCS (PAN Biotech, e.g. 3302-P270521) or alternatively MEM Alpha Medium (lx, liquid, Invitrogen, #22571), 10% fetal calf serum (FCS) (Invitrogen, #10270-106, heat-inactivated) and the necessary selection antibiotics.
Before being sown out for the measurements, the cells are washed with a 1×DPBS buffer without Ca^2+/Mg^2+ (e.g. Invitrogen, #14190-094) and detached from the bottom of the culture vessel by means of Accutase (PAA Laboratories, #L11-007) (incubation with Accutase for 15 min at 37° C.). The cell count then present is determined using a CASY™ cell counter (TCC model, Scharfe System) in order subsequently to apply, depending on the density optimization for the individual cell line, 20,000-30,000 cells/well/100 μl of the described nutrient medium to 96-well measuring plates of the Corning™ CeIIBIND™ type (Flat Clear Bottom Black Polystyrene Microplates, #3340). Incubation is then carried out for one hour at room temperature, without gassing or adjusting the humidity, followed by incubation for 24 hours at 37° C., 5% CO2 and 95% humidity.
The voltage-sensitive fluorescent dye from the Membrane Potential Assay Kit (Red™ Bulk format part R8123 for FLIPR, MDS Analytical Technologies™) is prepared by dissolving the contents of a vessel Membrane Potential Assay Kit Red Component A in 200 ml of extracellular buffer (ES buffer, 120 mM NaCl, 1 mM KCl, 10 mM HEPES, 2 mM CaCl2, 2 mM MgCl2, 10 mM glucose; pH 7.4). After removal of the nutrient medium, the cells are washed with 200 μl of ES buffer, then covered with a layer of 100 μl of the dye solution prepared above and incubated for 45 min at room temperature with the exclusion of light.
The fluorescence measurements are carried out with a BMG Labtech FLUOstar™, BMG Labtech NOVOstar™ or BMG Labtech POLARstar™ instrument (525 nm excitation, 560 nm emission, Bottom Read mode). After incubation of the dye, 50 μl of the test substances in the desired concentrations, or 50 μl of ES buffer for control purposes, are introduced into separate cavities of the measuring plate and incubated for 30 min at room temperature while being shielded from light. The fluorescence intensity of the dye is then measured for 5 min and the fluorescence value F1 of each well is thus determined at a given, constant time. 15 μl of a […] KCl solution ([…]) are then added to each well. The change in fluorescence is subsequently measured until all the relevant measured values have been obtained (mainly 5-30 min). At a given time after KCl application, a fluorescence value F2 is determined, in this case at the time of the fluorescence peak.
For calculation, the fluorescence intensity F2 is corrected for the fluorescence intensity F1, and the activity (ΔF/F) of the target compound on the potassium channel is determined as follows:
In order to determine whether a substance has agonistic activity,
A substance has an agonistic activity on the potassium channel if
Calculations of EC50 and IC50 values are carried out with the aid of ‘Prism v4.0’ software (GraphPad Software™)

[1] = test system: withdrawal reflex of the rat tail (tail flick); experiment: Low-intensity tail flick test (rat); assay type: in vivo; details: dose 10 mg/kg
Protocol: Method II. Low-Intensity Tail Flick Test (Rat)
In the low-intensity tail flick test, the determination of the antinociceptive effect of the compounds according to the invention towards an acute noxious thermal stimulus is carried out by measuring the withdrawal reflex of the rat tail (tail flick) in response to a radiant heat beam (analgesia meter; model 2011 of the company Rhema Labortechnik, Hofheim, Germany) according to the method described by D'Amour and Smith (J. Pharm. Exp. Ther. 72, 74 79 (1941). To this end, the rats were placed in a plexiglas restrainer, and a low-intensity radiant heat beam (48° C.) was focused onto the dorsal surface of the tail root. The stimulus intensity was adjusted to result in a mean pre-drug control withdrawal latency of about 7 s, thus also allowing a supraspinal modulation of the spinally mediated acute nociceptive reflex. […] Before administration of a compound according to the invention, the animals were pre-tested twice in the course of five minutes and the mean of these measurements was calculated as the pre-test mean. The antinociceptive effect was determined at 20, 40 and 60 min after peroral compound administration. The antinociceptive effect was calculated based on the increase in the tail withdrawal latency according to the following formula and is expressed as percentage of the maximum possible effect (MPE [%]): MPE=[(T1−T0)/(T2−T0)]*100 […]

Emax (KCNQ2/3 channels) [%]	EC50 (KCNQ2/3 channels) [nM]	SMILES	Low intensity tail flick, rat, peroral, ED50 or MPE (dose) [mg/kg] [1]
9	–	CCSc1nc2cccnc2c(C)c1C(=O)NCc1cccc(F)c1 [Example 8, 2-Ethylsulfanyl-N-[(3-fluorophenyl)-methyl]-4-methyl-[1,5]naphthyridine-3-carboxylic acid amide]	–
31	–	CCSc1nc2sccc2c(C)c1C(=O)NCc1cccc(F)c1 [Example 4, 6-Ethylsulfanyl-N-[(3-fluorophenyl)-methyl]-4-methyl-thieno[2,3-b]pyridine-5-carboxylic acid amide]	–
10	–	CCSc1nc2ncccc2c(C)c1C(=O)NCc1ccc(F)cc1 [Example 16, 2-Ethylsulfanyl-N-[(4-fluorophenyl)-methyl]-4-methyl-[1,8]naphthyridine-3-carboxylic acid amide]	–
62	2190	CCSc1nc2cnccc2c(C)c1C(=O)NCc1cccc(F)c1 [Example 2, 2-Ethylsulfanyl-N-[(3-fluorophenyl)-methyl]-4-methyl-[1,7]naphthyridine-3-carboxylic acid amide]	–
101	201	CCSc1nc2cc(C(F)(F)F)ncc2c(C)c1C(=O)NCc1cccc(F)c1 [Example 11, 2-Ethylsulfanyl-N-[(3-fluorophenyl)-methyl]-4-methyl-7-(trifluoromethyl)-[1,6]naphthyridine-3-carboxylic acid amide]	–
10	–	CCSc1nc2ncccc2c(C)c1C(=O)NCc1cccc(F)c1 [Example 17, 2-Ethylsulfanyl-N-[(3-fluorophenyl)-methyl]-4-methyl-[1,8]naphthyridine-3-carboxylic acid amide]	–
32	–	CCSc1nc2ccncc2c(C)c1C(=O)NCc1cccc(F)c1 [Example 13, 2-Ethylsulfanyl-N-[(3-fluorophenyl)-methyl]-4-methyl-[1,6]naphthyridine-3-carboxylic acid amide]	–
6	–	CCSc1nc2cccnc2c(C)c1C(=O)NCc1ccc(F)cc1 [Example 9, 2-Ethylsulfanyl-N-[(4-fluorophenyl)-methyl]-4-methyl-[1,5]naphthyridine-3-carboxylic acid amide]	–
156	84	CCSc1nc2cc(C(F)(F)F)cnc2c(C)c1C(=O)NCc1cccc(F)c1 [Example 1, 2-Ethylsulfanyl-N-[(3-fluorophenyl)-methyl]-4-methyl-7-(trifluoromethyl)-[1,5]naphthyridine-3-carboxylic acid amide]	–
-39	650	CCSc1nc2ccsc2c(C)c1C(=O)NCc1cccc(F)c1 [Example 14, 5-Ethylsulfanyl-N-[(3-fluorophenyl)-methyl]-7-methyl-thieno[3,2-b]pyridine-6-carboxylic acid amide]	–

Continued, compound first:

SMILES	Emax (KCNQ2/3 channels) [%]	EC50 (KCNQ2/3 channels) [nM]	Low intensity tail flick, rat, peroral, ED50 or MPE (dose) [mg/kg] [1]
CCSc1nc2cnccc2c(C)c1C(=O)NCc1ccc(F)cc1 [Example 15, 2-Ethylsulfanyl-N-[(4-fluorophenyl)-methyl]-4-methyl-[1,7]naphthyridine-3-carboxylic acid amide]	34	–	–
CCSc1nc2nc(C(F)(F)F)ccc2c(C)c1C(=O)NCc1cccc(F)c1 [Example 6, 2-Ethylsulfanyl-N-[(3-fluorophenyl)-methyl]-4-methyl-7-(trifluoromethyl)-[1,8]naphthyridine-3-carboxylic acid amide]	152	683	–
CCOc1nc2cc(C(F)(F)F)sc2c(C)c1C(=O)NCc1cccc(F)c1 [Example 5, 5-Ethoxy-N-[(3-fluorophenyl)-methyl]-7-methyl-2-(trifluoromethyl)-thieno[3,2-b]pyridine-6-carboxylic acid amide]	121	51	–
CCSc1nc2ccncc2c(C)c1C(=O)NCc1ccc(F)cc1 [Example 3, 2-Ethylsulfanyl-N-[(4-fluorophenyl)-methyl]-4-methyl-[1,6]naphthyridine-3-carboxylic acid amide]	34	–	–
CCOc1nc2sc(C(F)(F)F)cc2c(C)c1C(=O)NCc1cccc(F)c1 [Example 18, 6-Ethoxy-N-[(3-fluorophenyl)-methyl]-4-methyl-2-(trifluoromethyl)-thieno[2,3-b]pyridine-5-carboxylic acid amide]	112	63	–
CCSc1nc2cc(C(F)(F)F)cnc2c(C)c1C(=O)NCc1ccc(F)cc1 [Example 10, 2-Ethylsulfanyl-N-[(4-fluorophenyl)-methyl]-4-methyl-7-(trifluoromethyl)-[1,5]naphthyridine-3-carboxylic acid amide]	148	101	–
CCSc1nc2cc(C(F)(F)F)ncc2c(C)c1C(=O)NCc1ccc(F)cc1 [Example 12, 2-Ethylsulfanyl-N-[(4-fluorophenyl)-methyl]-4-methyl-7-(trifluoromethyl)-[1,6]naphthyridine-3-carboxylic acid amide]	97	301	–
CCSc1nc2nc(C(F)(F)F)ccc2c(C)c1C(=O)NCc1ccc(F)cc1 [Example 7, 2-Ethylsulfanyl-N-[(4-fluorophenyl)-methyl]-4-methyl-7-(trifluoromethyl)-[1,8]naphthyridine-3-carboxylic acid amide]	132	412	16 (10) %
